According to publication PMC8640094, “Diaportones A–C: Three New Metabolites From Endophytic Fungus Diaporthe foeniculina BZM-15” (Frontiers in Chemistry, 2021):

How the values were obtained:
[1] = test system: MCF-7 (breast cancer); assay: MTT cytotoxicity assay, MCF-7 cells; type: cell-based, human; settings: Homo sapiens; for inhibition at 1 µM / inhibition at 2 µM / inhibition at 4 µM / inhibition at 8 µM / inhibition at 16 µM / inhibition at 32 µM / inhibition at 64 µM / inhibition at 128 µM: MCF7, 72 h, three replicates, read-out: cell inhibition; for inhibition at 1 µM: MCF-7, c 1.00 μM; for inhibition at 2 µM: MCF-7, c 2.00 μM; for inhibition at 4 µM: MCF-7, c 4.00 μM; for inhibition at 8 µM: MCF-7, c 8.00 μM; for inhibition at 16 µM: MCF-7, c 16.00 μM; for inhibition at 32 µM: MCF-7, c 32.00 μM; for inhibition at 64 µM: MCF-7, c 64.00 μM; for inhibition at 128 µM: MCF-7, c 128.00 μM; for IC50: MCF7, MTT, 72 h, mean ± SD (n = 3)
Description: (§1) The cytotoxicity of all compounds against three human tumor cell lines, SF-268 (CNS cancer), MCF-7 (breast cancer), and HepG2 (hepatoma cancer), and normal cell line LX-2 was tested using the MTT assay. […] All cells were seeded into 96-well plates at 5 × 10^4 cells/ml and incubated at 37°C under a 5% CO2 atmosphere for 24 h. Then, the tested compounds were added. After 72 h, MTT solution was added into each well, which was further incubated. The cell-free supernatant was removed and formazan crystals were subsequently dissolved in DMSO. Optical density (OD) was recorded at 490 nm on a microplate reader to calculate the IC50 values.

[2] = test system: HepG2 (hepatoma cancer); assay: MTT cytotoxicity assay, HepG2 cells; type: cell-based, human; settings: Homo sapiens; for inhibition at 1 µM / inhibition at 2 µM / inhibition at 4 µM / inhibition at 8 µM / inhibition at 16 µM / inhibition at 32 µM / inhibition at 64 µM / inhibition at 128 µM: HepG2, 72 h, three replicates, read-out: cell inhibition; for inhibition at 1 µM: HepG2, c 1.00 μM; for inhibition at 2 µM: HepG2, c 2.00 μM; for inhibition at 4 µM: HepG2, c 4.00 μM; for inhibition at 8 µM: HepG2, c 8.00 μM; for inhibition at 16 µM: HepG2, c 16.00 μM; for inhibition at 32 µM: HepG2, c 32.00 μM; for inhibition at 64 µM: HepG2, c 64.00 μM; for inhibition at 128 µM: HepG2, c 128.00 μM; for IC50: HepG2, MTT, 72 h, mean ± SD (n = 3)
Description: (§2) The cytotoxicity of all compounds against three human tumor cell lines, SF-268 (CNS cancer), MCF-7 (breast cancer), and HepG2 (hepatoma cancer), and normal cell line LX-2 was tested using the MTT assay. Adriamycin was used as a positive control. All cells were seeded into 96-well plates at 5 × 10^4 cells/ml and incubated at 37°C under a 5% CO2 atmosphere for 24 h. Then, the tested compounds were added. After 72 h, MTT solution was added into each well, which was further incubated. The cell-free supernatant was removed and formazan crystals were subsequently dissolved in DMSO. Optical density (OD) was recorded at 490 nm on a microplate reader to calculate the IC50 values.

[3] = test system: SF-268 (CNS cancer); assay: MTT cytotoxicity assay, SF-268 cells; type: cell-based, human; settings: Homo sapiens; for inhibition at 1 µM / inhibition at 2 µM / inhibition at 4 µM / inhibition at 8 µM / inhibition at 16 µM / inhibition at 32 µM / inhibition at 64 µM / inhibition at 128 µM: SF-268, 72 h, SF268 cells, triplicate values, read-out: cell inhibition; for inhibition at 1 µM: c 1.00 μM; for inhibition at 2 µM: c 2.00 μM; for inhibition at 4 µM: c 4.00 μM; for inhibition at 8 µM: c 8.00 μM; for inhibition at 16 µM: c 16.00 μM; for inhibition at 32 µM: c 32.00 μM; for inhibition at 64 µM: c 64.00 μM; for inhibition at 128 µM: c 128.00 μM; for IC50: SF-268, MTT, 72 h, mean ± SD (n = 3), read-out: IC50 SF268
Description: as §2

[4] = test system: normal cell line LX-2; assay: MTT cytotoxicity assay, normal cell line LX-2; type: cell-based; settings: 72 h; for inhibition at 1 µM: LX-2, c 1.00 μM; for inhibition at 1 µM / inhibition at 2 µM / inhibition at 4 µM / inhibition at 8 µM / inhibition at 16 µM / inhibition at 32 µM / inhibition at 64 µM / inhibition at 128 µM: three replicates; for inhibition at 2 µM: LX-2, c 2.00 μM; for inhibition at 4 µM: LX-2, c 4.00 μM; for inhibition at 8 µM: LX-2, c 8.00 μM; for inhibition at 16 µM: LX-2, c 16.00 μM; for inhibition at 32 µM: LX-2, c 32.00 μM; for inhibition at 64 µM: LX-2, c 64.00 μM; for inhibition at 128 µM: LX-2, c 128.00 μM; for IC50: MTT, mean ± SD (n = 3)
Description: as §1

SMILES	inhibition at 1 µM [1] [%]	inhibition at 2 µM [1] [%]	inhibition at 4 µM [1] [%]	inhibition at 8 µM [1] [%]	inhibition at 16 µM [1] [%]	inhibition at 32 µM [1] [%]	inhibition at 64 µM [1] [%]	inhibition at 128 µM [1] [%]	IC50 [1] [µM]	inhibition at 1 µM [2] [%]	inhibition at 2 µM [2] [%]	inhibition at 4 µM [2] [%]	inhibition at 8 µM [2] [%]	inhibition at 16 µM [2] [%]	inhibition at 32 µM [2] [%]	inhibition at 64 µM [2] [%]	inhibition at 128 µM [2] [%]	IC50 [2] [µM]	inhibition at 1 µM [3] [%]	inhibition at 2 µM [3] [%]	also measured
C/C(=C\C=C\[C@]1(C)OC(=O)[C@@H](C)[C@@H]1O)[C@H](C)O [compound 2, colletolides A]	1.03	2.87	2.35	12.7	17.4	22.6	53.1	70.1	> 40	2.57	3.48	7.34	14.6	19.4	27.5	60.5	75	> 40	3.14	4.41	inhibition at 4 µM [3]: 8.45%; inhibition at 8 µM [3]: 9.12%; inhibition at 16 µM [3]: 19.4%; inhibition at 32 µM [3]: 27.1%; inhibition at 64 µM [3]: 51.5%; inhibition at 128 µM [3]: 70.1%; IC50 [3]: > 40 µM; inhibition at 1 µM [4]: 4.42%; inhibition at 2 µM [4]: 5.31%; inhibition at 4 µM [4]: 11.3%; inhibition at 8 µM [4]: 19.3%; inhibition at 16 µM [4]: 24.4%; inhibition at 32 µM [4]: 40.4%; inhibition at 64 µM [4]: 79.4%; inhibition at 128 µM [4]: 80.5%; IC50 [4]: > 40 µM
CCCC(O)C1=C(C)C(=O)C(C)C1 (stereo not drawn) [compound 3, diaportone B]	8.01	13.3	14.8	21.4	30.5	41.4	62.7	76.1	> 40	8.12	14.3	19.2	25.3	30.6	42.1	54.8	75.3	> 40	6.32	12	inhibition at 4 µM [3]: 19.4%; inhibition at 8 µM [3]: 21.4%; inhibition at 16 µM [3]: 27.3%; inhibition at 32 µM [3]: 28.5%; inhibition at 64 µM [3]: 34.1%; inhibition at 128 µM [3]: 59.4%; IC50 [3]: > 40 µM; inhibition at 1 µM [4]: 6.32%; inhibition at 2 µM [4]: 5.31%; inhibition at 4 µM [4]: 11.4%; inhibition at 8 µM [4]: 20.6%; inhibition at 16 µM [4]: 28.3%; inhibition at 32 µM [4]: 34.8%; inhibition at 64 µM [4]: 50.5%; inhibition at 128 µM [4]: 70.2%; IC50 [4]: > 40 µM
